Test results as given in patent US20230089534A1, “PHENOLIC COMPOSITIONS FOR MALODOR REDUCTION” (Milliken & Company, priority 2021, published 2023).

Columns and labels:
[1] = Stability of antioxidants in AATCC HE liquid detergent (crystallization/precipitation); assay type: physicochemical; details: room temperature, after 3 days
Excerpt: A comparison of the stability of the antioxidants in standard AATCC detergent was made to highlight the benefit of having a plurality of molecules. Due to the highly crystalline nature of many commercially available antioxidants, they tend to be incompatible in detergent and will crystallize out of the detergent over time. The inventive compounds of this invention show improvements in remaining stable in liquid detergent.
The antioxidants in table 6 were combined with AATCC HE liquid detergent without optical brighteners (available from Test Fabrics, Inc., Item #0501001) in a 20 mL glass scintillation vial. The vials were placed in a sonicator for 1 hour, then heated to 80° C. for 30 minutes, whereby all samples were completely dissolved. The samples were removed from the oven, swirled briefly and hand then allowed to cool to room temperature. When the vials were cooled down to room temperature, the bottom of the vials were scratched with a metal spatula a few times to aide in the crystallization process, which can take a long time if left undisturbed. After an additional 3 days, observations were recorded as crystallization present or not present in Table 6.

[2] = Wash test: malodor marker reduction on artificial body soil treated fabric, headspace GCMS; details: Table 5, vs control detergent nil antioxidant
Description: In order to test the efficiency of the antioxidants for malodor reduction, an artificial body soil (ABS) was prepared. The artificial body soil is a modified version of the soil from ASTM D4265-21. To prepare the ABS, the components of Table 1 were combined in an 8 oz. jar and heated to 70° C. until fully solubilized.
50/50 Cotton/poly interlock fabric (Style 7439 GB, Testfabrics, Inc.) was cut into 2 in×5 in swatches. Cut swatches were dosed with three equally spaced 0.36 mL portions of artificial body soil composition. Fabrics were then sealed together in a mylar bag and incubated at 37° C. for four to seven days prior to wash treatment.
Antioxidant solution was prepared by dissolving the antioxidant compound to be tested in methanol at 0.5% w/w. The antioxidant solution was dosed into the wash water (500 mL) using a micropipettor according to Table 3 to obtain the desired concentration of antioxidant in wash water required for the testing.
To 1 L wash beaker was added 0.4 g Tide Free and Gentle detergent, 500 mL of wash water (as prepared in Table 2) and the antioxidant solution as described in Table 3. The wash beaker was placed in a tergetometer. To the wash beaker was added two incubated fabric swatches (4 g) followed by one 11 in×11 in 50/50 Cotton/Poly interlock knit clean fabric swatch (16 g, Style 74390B, Testfabrics, Inc.), for a total liquor to fabric ratio of 25:1. The fabrics were then washed in the tergotometer for 15 minutes and spun dried for one minute in a spin dryer (Mini Spin Dryer Model LASD-1 available from The Laundry Alternative, Inc.). […] The tests were run in triplicate and an average malodor reduction percent was calculated. […]
The percent malodor reduction is determined by GCMS using an Agilent Intuvo 9000 GC equipped with an Agilent 7000D GC/TQ mass spectrometer and a Trajan PAL 3 RTC sampler equipped with a solid phase micro-extraction (SPME) probe. […] The extracted ion chromatogram for 3-methyl-2-butenal includes Quantifier: 84, Qualifier: 55, Ratio: 35.7. […]

## Cc1cc(CCC(=O)OCCOCCOCCOC(=O)CCc2cc(C)c(O)c(C(C)(C)C)c2)cc(C(C)(C)C)c1O [Irganox 245, 2-[2-(2-{3-[3-(tert-Butyl)-4-hydroxy-5-tolyl]propionoxy}ethoxy)ethoxy]ethyl 3-[3-(tert-butyl)-4-hydroxy-5-tolyl]propionate]
[1]; loading 500 ppm in AATCC detergent
  Precipitation Seen: No
[1]; loading 1000 ppm in AATCC detergent
  Precipitation Seen: No
[1]; loading 5000 ppm in AATCC detergent
  Precipitation Seen: Yes
[1]; loading 10000 ppm in AATCC detergent
  Precipitation Seen: Yes
[2]; 2 ppm in wash water
  % Malodor marker reduction: 44.0%
[2]; 4 ppm in wash water
  % Malodor marker reduction: 74.4%
[2]; 8 ppm in wash water
  % Malodor marker reduction: 89.5%
